Assays:
solubility = assay type: physicochemical; details: hydrochloride
[1] = system: Gram-positive and Gram-negative bacteria; experiment: growth inhibition of various microorganisms (overall); assay type: cell-based; details: overall result in words
Excerpt: (§1) Table 1 below summarizes the minimum growth inhibitory concentrations of the BN-183B substance on various microorganisms.
(§2) The culture media used were a nutrient agar (a product of Difco).

Vaccinia virus Lister = assay type: cell-based; details: dose 3.9 mcg/m
[2] = system: Infectious hematopoietic necrosis (IHN) virus of rainbow trout; experiment: antiviral activity by tissue culture test; assay type: cell-based; details: dose 0.5 mcg/m
Influenza virus A0/PR-8 = assay type: cell-based; details: dose 3.9 mcg/m
[3] = system: Herpes simplex virus type II 196; experiment: anti-Herpes virus activity in mice; assay type: in vivo
lymphoid leukemia L-1210 = experiment: increase in life span of mice transplanted intraperitoneally with L-1210; assay type: in vivo
Procedure: (§3) Lymphocytic leukemia P-388 or lymphoid leukemia L-1210 cells were transplanted intraperitoneally in an amount of 1×10^6 per mouse into CDF1 mice or BDF1 mice (about 5 weeks old, body weight 20±1 g), five in one group. Twenty-four hours after the transplantation of the tumor, a solution of the BN-183B substance in distilled water for injection was administered intraperitoneally to the mice once a day for three successive days. The percent increase in life span (i.e., ILS) was measured by comparing the average number of days of survival of each treated group with that of a control group to which the BN-183B substance was not administered.

[4] = system: Bacillus subtilis ATCC 6633; experiment: paper disc method, inhibitory zone; assay type: cell-based; details: pure product, 20 to 500 mcg/ml
Procedure: In assaying the BN-183B substance, its anti-bacterial activity is utilized and Bacillus subtilis ATCC 6633 is used as an assaying strain. A mixture of 2% of mycin assay agar (a product of Kyoei Seiyaku K.K.) and 0.5% of bacto-agar (a product of Difco) is used as an assaying culture medium. When BN-183B substance (pure product) is assayed under the above conditions, the relation between the logarithm of the concentration within the range of 20 to 500 mcg/ml and the diameter of the inhibitory zone is linear, and an inhibitory zone having a diameter of 16 to 29 mm is given corresponding to the above concentration range (paper disc method).

[5] = system: Infectious pancreatic necrosis (IPN) virus of rainbow trout; experiment: antiviral activity by tissue culture test; assay type: cell-based; details: dose 0.5 mcg/m
[6] = system: Newcastle disease virus Miyadera; assay type: cell-based; details: dose 3.9 mcg/m
[7] = system: Lymphocytic leukemia P-388; experiment: increase in life span of mice transplanted intraperitoneally with P-388; assay type: in vivo
Procedure: as §3

[8] = system: DNA-type and RNA-type viruses; experiment: antiviral activity by tissue culture test (overall); assay type: cell-based; details: overall result in words
LD50 in mice = assay type: in vivo
[9] = system: Staphylococcus faecalis ATCC8043; experiment: minimum growth inhibitory concentration; assay type: cell-based; details: nutrient agar
Excerpt: as §1, §2

[10] = system: Staphylococcus aureus 209P JC-1; experiment: minimum growth inhibitory concentration; assay type: cell-based; details: nutrient agar
Excerpt: as §1, §2

Proteus vulgaris OX19 = experiment: minimum growth inhibitory concentration; assay type: cell-based; details: nutrient agar
Excerpt: as §1, §2

[11] = system: Escherichia coli K-12 IAM 1264; experiment: minimum growth inhibitory concentration; assay type: cell-based; details: nutrient agar
Excerpt: as §1, §2

[12] = system: Escherichia coli NIHJ JC-2; experiment: minimum growth inhibitory concentration; assay type: cell-based; details: nutrient agar
Excerpt: as §1, §2

[13] = system: Staphylococcus epidermidis ATCC14990; experiment: minimum growth inhibitory concentration; assay type: cell-based; details: nutrient agar
Excerpt: as §1, §2

[14] = system: Staphylococcus aureus Smith S-424; experiment: minimum growth inhibitory concentration; assay type: cell-based; details: nutrient agar
Excerpt: as §1, §2

Herpes virus type II 196 = experiment: antiviral activity by tissue culture test; assay type: cell-based; details: dose 3.9 mcg/m

With `C[C@H](N)C(=O)N[C@@H]1[C@H]2C(=C(O)C[C@@H](O)[C@@H]2O)C(=O)O[C@]1(C)C(Cl)Cl` [BN-183B substance] the Solubility in acetone (solubility; acetone) was “scarcely soluble”, the Solubility in chloroform (solubility; chloroform) was “scarcely soluble” and the “Solubility in ethyl acetate” value (solubility; ethyl acetate) was “scarcely soluble”. The Solubility in methanol (solubility; methanol) was “slightly soluble”, the Solubility in water (solubility; water) was “Very soluble” and the “inhibitory activity on Gram-positive and Gram-negative bacteria” value [1] was “strong inhibitory activity”. For the same compound, the “Difference of Log TCID50/ml from the Control” value (from here on “Difference of Log TCID50/ml”) (Vaccinia virus Lister) was under 3.00 Log TCID50/ml, the “Difference of Log TCID50/ml” value [2] was 3.000 Log TCID50/ml and the “Difference of Log TCID50/ml” value (Influenza virus A0/PR-8) was 2.50. For the same compound, the “anti-Herpes virus effect compared with IUDR” value ([3]; 1.25 mg/kg BN-183B vs 100 mg/kg IUDR, i.p.) was “the same effect as in the group to which 100 mg/kg of IUDR was administered”, the “ET50 (number of days of 50% survival)” value ([3]; 1.25 mg/kg i.p.) was 8.38 days and the “Cumulative Mortality” value ([3]; 1.25 mg/kg i.p., day 5 from inoculation) was 0%. For the same compound, the “Cumulative Mortality” value ([3]; 1.25 mg/kg i.p., day 6 from inoculation) was 20%, the “Cumulative Mortality” value ([3]; 1.25 mg/kg i.p., day 7 from inoculation) was 20% and the “Cumulative Mortality” value ([3]; 1.25 mg/kg i.p., day 8 from inoculation) was 60%. The “Cumulative Mortality” value ([3]; 1.25 mg/kg i.p., day 9 from inoculation) was 70%, the “Cumulative Mortality” value ([3]; 1.25 mg/kg i.p., day 10 from inoculation) was 70% and the “Cumulative Mortality” value ([3]; 1.25 mg/kg i.p., day 11 from inoculation) was 80%. For the same compound, the “Cumulative Mortality” value ([3]; 1.25 mg/kg i.p., day 12 from inoculation) was 90%, the “Cumulative Mortality” value ([3]; 1.25 mg/kg i.p., day 13 from inoculation) was 90% and the “Cumulative Mortality” value ([3]; 1.25 mg/kg i.p., day 14 from inoculation) was 90%. The “ET50 (number of days of 50% survival)” value ([3]; 2.5 mg/kg i.p.) was 7.65 days, the “Cumulative Mortality” value ([3]; 2.5 mg/kg i.p., day 5 from inoculation) was 0% and the “Cumulative Mortality” value ([3]; 2.5 mg/kg i.p., day 6 from inoculation) was 10%. The “Cumulative Mortality” value ([3]; 2.5 mg/kg i.p., day 7 from inoculation) was 20%, the “Cumulative Mortality” value ([3]; 2.5 mg/kg i.p., day 8 from inoculation) was 70% and the “Cumulative Mortality” value ([3]; 2.5 mg/kg i.p., day 9 from inoculation) was 80%. For the same compound, the “Cumulative Mortality” value ([3]; 2.5 mg/kg i.p., day 10 from inoculation) was 100%, the “Percent Increase in Life Span” value (lymphoid leukemia L-1210; L-1210, 0.25 mg/kg i.p. once a day for three days) was 10.8% and the “Percent Increase in Life Span” value (lymphoid leukemia L-1210; L-1210, 0.5 mg/kg i.p. once a day for three days) was 35.1%. The “Percent Increase in Life Span” value (lymphoid leukemia L-1210; L-1210, 1 mg/kg i.p. once a day for three days) was 32.4%, the “Percent Increase in Life Span” value (lymphoid leukemia L-1210; L-1210, 2 mg/kg i.p. once a day for three days) was 45.9% and the “Percent Increase in Life Span” value (lymphoid leukemia L-1210; L-1210, 4 mg/kg i.p. once a day for three days) was 59.5%. The “diameter of the inhibitory zone” value [4] was 16 to 29 mm, the “Difference of Log TCID50/ml” value [5] was 6.801 Log TCID50/ml and the “Difference of Log TCID50/ml” value [6] was 6.00 Log TCID50/ml. The “Percent Increase in Life Span” value ([7]; P-388, 0.25 mg/kg i.p. once a day for three days) was 32.1%, the “Percent Increase in Life Span” value ([7]; P-388, 0.5 mg/kg i.p. once a day for three days) was 41.5% and the “Percent Increase in Life Span” value ([7]; P-388, 1 mg/kg i.p. once a day for three days) was 54.7%. For the same compound, the “Percent Increase in Life Span” value ([7]; P-388, 2 mg/kg i.p. once a day for three days) was 79.2%, the “Percent Increase in Life Span” value ([7]; P-388, 4 mg/kg i.p. once a day for three days) was 66.0% and the “activity against DNA-type and RNA-type viruses” value [8] was “very strong activity”. For the same compound, the LD50 (LD50 in mice; intramuscular) was 4.1 mg/kg, the LD50 (LD50 in mice; intraperitoneal) was 4.3 mg/kg and the LD50 (LD50 in mice; intravenous) was 4.1 mg/kg. For the same compound, the LD50 (LD50 in mice; oral) was 50 mg/kg, the LD50 (LD50 in mice; subcutaneous) was 6.0 mg/kg and the “Minimum Growth Inhibitory Concentration” value [9] was 0.39 µg/mL. For the same compound, the “Minimum Growth Inhibitory Concentration” value [10] was 0.20 µg/mL, the “Minimum Growth Inhibitory Concentration” value (Proteus vulgaris OX19) was 6.25 µg/mL and the “Minimum Growth Inhibitory Concentration” value [11] was 0.78 µg/mL. The “Minimum Growth Inhibitory Concentration” value [12] was 1.56 µg/mL, the “Minimum Growth Inhibitory Concentration” value [13] was 0.20 µg/mL and the “Minimum Growth Inhibitory Concentration” value [14] was 0.20 µg/mL. The “Difference of Log TCID50/ml” value (Herpes virus type II 196) was 3.83 Log TCID50/ml.

For `O=c1[nH]c(=O)n([C@H]2C[C@H](O)[C@@H](CO)O2)cc1I` [IUDR, 5-iodo-2'-deoxyuridine, reference compound], the “ET50 (number of days of 50% survival)” value ([3]; 100 mg/kg i.p.) was 8.50 days, the “Cumulative Mortality” value ([3]; 100 mg/kg i.p., day 5 from inoculation) was 0% and the “Cumulative Mortality” value ([3]; 100 mg/kg i.p., day 6 from inoculation) was 0%. For the same compound, the “Cumulative Mortality” value ([3]; 100 mg/kg i.p., day 7 from inoculation) was 30%, the “Cumulative Mortality” value ([3]; 100 mg/kg i.p., day 8 from inoculation) was 40% and the “Cumulative Mortality” value ([3]; 100 mg/kg i.p., day 9 from inoculation) was 60%. The “Cumulative Mortality” value ([3]; 100 mg/kg i.p., day 10 from inoculation) was 70%, the “Cumulative Mortality” value ([3]; 100 mg/kg i.p., day 11 from inoculation) was 70% and the “Cumulative Mortality” value ([3]; 100 mg/kg i.p., day 12 from inoculation) was 70%. For the same compound, the “Cumulative Mortality” value ([3]; 100 mg/kg i.p., day 13 from inoculation) was 70% and the “Cumulative Mortality” value ([3]; 100 mg/kg i.p., day 14 from inoculation) was 70%.
